Test results as given in patent US20250059196A1 (SHANGHAI HANSOH BIOMEDICAL CO., LTD., priority 2021, published 2025).

Key:
[1] = Pharmacokinetics of oral administration in Balb/C mice; assay type: in vivo; settings: 30 mg/kg, P.O., plasma
Method: Balb/C mice were used as test animals to study the pharmacokinetic behavior of the compound in the plasma of mice after oral administration at a dose of 30 mg/kg.
3 Balb/C mice (3/example), male, from Shanghai Jiesijie Experimental Animal Co., Ltd., animal production license number (SCXK (Shanghai) 2013-0006 N0.311620400001794).
3 Balb/C mice, male; p.o. respectively at a dose of 30 mg/kg and an administration volume of 10 mL/kg after the mice were fasted overnight.
Before and after administration of mice, 0.1 mL of blood was collected from the orbit at 0, 0.5, 1, 2, 4, 6, 8 and 24 h, and placed in EDTA-K2 test tubes, which was centrifuged at 6000 rpm at 4° C. for 6 min to separate plasma which was stored at −80° C.
• 1) 160 μL of acetonitrile was added to 40 μL of plasma sample for precipitation, and same was mixed and centrifuged at 3500×g for 5 to 20 min. • 2) 100 μL of the treated supernatant solution was taken and subjected to LC/MS/MS to analyze the concentrations of the test compounds.
• Liquid phase conditions: Shimadzu LC-20AD pump • Mass spectrometry conditions: AB Sciex API 4000 mass spectrometer • Chromatographic column: Phenomenex Gemiu 5 um C18 50×4.6 mm • Mobile phase: liquid A is 0.1% aqueous formic acid solution, liquid B is acetonitrile • flow rate: 0.8 mL/min • Elution time: 0-4.0 min, the eluent is as follows:
The main pharmacokinetic parameters were calculated using WinNonlin 8.2.

[2] = biological target: MALT1 protease activity in TMD8 cells (substrate BCL-10) (Homo sapiens (Human), UniProt Q9UDY8); assay: Intracellular MALT1 protease activity detection (BCL-10 ELISA in TMD8 cells); assay type: cell-based; settings: undigested BCL-10 by ELISA, 30 min compound then 2 h stimulation cocktail, read-out: Bcl10 TMD8 IC50
Method: By detecting the digestion level of the substrate BCL-10 by MALT1 in TMD8 cells, the inhibitory effect of the compound on MALT1 protease activity in the cellular environment was tested.
The ELISA sandwich method was used to detect the content of undigested BCL-10 protein in cells and determine the inhibitory effect of compounds on intracellular MALT1 protease activity. The highest concentration of the compound detected was 10000 nM, 3-fold dilution, a total of 9 concentrations (10000 nM-1.5 nM). Cells were plated at an appropriate density. Compounds of corresponding concentrations were first added for action for 30 min, and then eBioscience cell stimulation cocktail was added to stimulate the cells for 2 h. Cell lysate was then collected. The cell lysate was added to the assay plate previously coated with recombinant BCL-10 antibody (Abcam, #Ab33905) and incubated at 4° C. overnight. The next day, BCL-10 detection antibody (Santacruz, #Sc-5273HRP) was added and incubated for 2 h, TMB substrate was used for color development for about 30 min, then the color development was terminated, and a microplate reader was used for detection.
2) Curve fitting: Log(inhibitor) vs. response—Variable slope (four parameters) in GraphPad Prism 6 was used to perform fitting equation analysis on compound concentration and corresponding inhibition rate, the curve was fit and compound IC50 value was obtained.
(§1) The fitting calculation equation is Y=Bottom+(Top−Bottom)/(1+10^((Log IC50−X)*HillSlope))

[3] = biological target: Recombinant human MALT1/MLT protein (Homo sapiens (Human), UniProt Q9UDY8); assay: Inhibitory effect on MALT1 enzyme activity (Ac-LRSR-AMC substrate, fluorescence 460 nm); assay type: biochemical; settings: 10 nM FL MALT1, Ac-LRSR-AMC substrate, 50 min pre-incubation, 4 h reaction
Method: Ac-LRSR-AMC was used as the substrate to test the IC50 of the inhibitory activity of compounds on MALT1 enzyme activity at their Km concentration.
Ac-LRSR-AMC was used as the substrate which was digested by MALT1 to produce products, which produced fluorescence that could be detected at 460 nm. The highest concentration of the compound detected was 1000 nM, 3-fold dilution, a total of 11 concentrations (1000 nM-0.017 nM). The reaction system is 10 nM FL MALT1 protein, […] Ac-LRSR-AMC, 50 mM Tris pH 7.5, 0.6M Citrate, 1 mM DTT, 1 mM EDTA, 0.05% BSA and 1.5% DMSO. The compound and the enzyme were pre-incubated at room temperature for 50 min. The substrate was then added and the reaction was carried out for 4 h.
The original data (460 nm reading) was calculated according to the following formula to obtain the inhibition rate.
(§2) Log(inhibitor) vs. response—Variable slope (four parameters) in GraphPad Prism 6 was used to perform fitting equation analysis on compound concentration and corresponding inhibition rate, the curve was fit and compound IC50 value was obtained.
as §1

OCI-Ly3 cells = assay: Inhibition of proliferation of OCI-Ly3 cells (CellTiter-Glo); assay type: cell-based, human; settings: 96 h incubation, read-out: Inhibition test of proliferation of OCI-Ly3 cells IC50
Method: The compound's inhibitory effect on the proliferation of TMD8 and OCI-Ly3 cells was evaluated through cell proliferation inhibition experiments.
The compound's inhibitory effect on the proliferation of TMD8 and OCI-Ly3 cells was detected by the CellTiter-Glo method. The highest concentration of the compound detected was 1000 nM, 3-fold dilution, a total of 9 concentrations (1000 nM-0.15 nM). After the cells were plated at an appropriate density, compounds were added the next day and incubated for 96 h before detection using the CellTiter-Glo Luminescent detection kit.
as §2, §1

Caco-2 cells = assay: Caco-2 bidirectional permeability test
Method: The purpose of this experiment is to test the bidirectional permeability of the compound through the Caco-2 cell model and evaluate whether the compound is transported by efflux transporters.
Liquid chromatography-mass spectrometer, centrifuge, vortexer, pipette, 96-well test plate (HTS Transwell Plate), acetonitrile solution containing internal standard, Caco-2 cells (ATCC), Hank's balance solution (HBSS), fluorescent yellow (LY), dimethyl sulfoxide (DMSO).
108 μL of transport buffer (HBSS containing 10 μM of the example compound) was added to the administration end of A to B. • b. 300 μL of transport buffer (HBSS containing DMSO) was added to the receiving end of A to B. • c. 300 μL of transport buffer (HBSS containing 10 μM example compound) was added to the administration end of A to B. • d. 108 μL of transport buffer (HBSS containing DMSO) was added to the receiving end of A to B. • e. incubation was performed for 90 min. • d. a sample was taken, processed and detected with mass spectrometry.
• Instruments: Liquid Chromatography; • Chromatographic column: Waters XSelect HSS T3 2.5 μm (2.1×50 mm); • Mobile phase: Phase A: 0.1% formic acid in pure water; Phase B: 0.1% formic acid in acetonitrile.
• Instruments: AP16500+liquid chromatography-mass spectrometer; • The ion source is electrospray ionization source (ESI); • The detection method is positive ion detection;
The scanning method is selected reaction monitoring (MRM).

[4] = tested on: OCI-LY3 cell subcutaneous xenograft tumor; assay: Tumor inhibition in OCI-LY3 subcutaneous xenograft NOG mouse model of human diffuse large B-cell lymphoma; assay type: in vivo; settings: NOG mice, 30 mg, BID × 4 weeks, oral
Method: The efficacy of test drugs was evaluated in OCI-LY3 mouse subcutaneous tumor model of human diffuse large B-cell lymphoma
• 1. Animal: NOG mice, female, 6-8 weeks old, weighing 18-22 grams, a total of 65 mice were needed. Provided by Beijing Vital River Laboratory Animal Technology Co., Ltd. or other qualified suppliers. • 2. Cell: Human diffuse large B-cell lymphoma OCI-LY3 cells were cultured in vitro as monolayers and conventional digestion treatment with trypsin-EDTA was carried out twice a week for passage. When the cell confluence was 80%-90% and the number reached the required number, cells were collected, counted, and inoculated. • 3. Grouping for vaccination: Cells (5×10^6 cells+Matrigel/0.2 ml) were inoculated subcutaneously into each mouse. The growth of animals and transplanted tumors were observed regularly. When the tumor grew to a volume of about 150-200 mm^3, the tumor volume of each mouse was calculated, and the mice were divided into random groups according to tumor volume and body weight. The calculation formula of tumor volume was V=0.5a×b^2, wherein a and b represented the long and short diameters of the tumor, respectively. • 4. Administration: According to the grouping results, the test drug was started to be administered (administration method: oral administration; Administration volume: 10 mL/kg; Administration frequency: 2 times/day; Administration cycle: 28 days; Vehicle: 10% solutol HS15-0.25% CMC-Na). Tumors were measured and weighed twice a week after starting administration of test drugs. • 5. Animals were euthanized after the experiment. • 6. Data processing: The tumor inhibitory efficacy of the compound was evaluated by TGI (%) or relative tumor proliferation rate T/C (%). TGI (%) reflects the tumor growth inhibition rate. Calculation of TGI (%): TGI (%)=[(1−(average tumor volume at the end of administration in a treatment group−average tumor volume at the beginning of administration in the treatment group))/(average tumor volume at the end of administration in the solvent control group−average tumor volume at the beginning of administration in the solvent control group)]×100%.
Relative tumor proliferation rate T/C (%): The calculation formulas are as follows: T/C %=TRTV/CRTV×100% (TRTV: RTV of treatment group; CRTV: RTV of negative control group). The relative tumor volume (RTV) was calculated based on the results of tumor measurement. The calculation formula is RTV=Vt/V0, where V0 is the average tumor volume measured at grouping for administration (i.e. d0), Vt is the average tumor volume at a certain measurement, and TRTV and CRTV take the data on the same day.
After the experiment, the tumor weight was measured, and the T/Cweight percentage was calculated. Tweight and Cweight represented the tumor weight of the administration group and the vehicle control group, respectively.
Remarks: The data in parentheses indicate the tumor volume corresponding to the vehicle group (i.e., the control group) at the corresponding time in this example.

MALT1 protease activity in TMD8 cells (substrate BCL-10), sequence (Q9UDY8 whole entry): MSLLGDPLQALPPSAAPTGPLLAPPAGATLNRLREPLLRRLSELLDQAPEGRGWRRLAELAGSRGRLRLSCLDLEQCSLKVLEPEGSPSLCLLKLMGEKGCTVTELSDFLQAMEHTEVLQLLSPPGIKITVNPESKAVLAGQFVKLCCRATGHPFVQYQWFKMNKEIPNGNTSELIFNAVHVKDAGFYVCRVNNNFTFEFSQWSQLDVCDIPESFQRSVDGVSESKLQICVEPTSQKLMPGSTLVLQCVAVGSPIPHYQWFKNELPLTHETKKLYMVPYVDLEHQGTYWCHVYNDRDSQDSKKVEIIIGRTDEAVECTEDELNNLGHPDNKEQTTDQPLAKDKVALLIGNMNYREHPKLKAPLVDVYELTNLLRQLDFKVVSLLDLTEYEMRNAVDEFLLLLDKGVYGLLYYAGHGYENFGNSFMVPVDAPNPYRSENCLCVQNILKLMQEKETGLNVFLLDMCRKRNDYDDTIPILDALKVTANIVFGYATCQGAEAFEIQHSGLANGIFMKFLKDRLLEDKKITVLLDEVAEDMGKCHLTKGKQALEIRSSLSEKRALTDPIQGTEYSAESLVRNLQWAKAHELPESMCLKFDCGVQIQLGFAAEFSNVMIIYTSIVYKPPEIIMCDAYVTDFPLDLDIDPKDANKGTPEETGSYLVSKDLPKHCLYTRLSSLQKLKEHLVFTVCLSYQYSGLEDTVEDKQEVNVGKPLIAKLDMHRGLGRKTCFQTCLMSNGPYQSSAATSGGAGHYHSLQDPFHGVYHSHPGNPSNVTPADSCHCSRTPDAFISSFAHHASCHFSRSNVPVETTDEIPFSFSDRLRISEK
Recombinant human MALT1/MLT protein, sequence (Q9UDY8 whole entry): as above

In the case of `O=C(Nc1ccnc(C(F)(F)F)c1)c1cnn(-c2ccc3c4c(cccc24)C(=O)N3)c1C(F)(F)F` [Example 27], the “AUC0-∞” value [1] is reported as 1,584,433 ng/mL*hr, the “AUC(0-t)” value [1] is reported as 1,130,746 ng/mL*h and the Cmax [1] is reported as 71,267 ng/mL. For the same compound, the MRT [1] was 18.7 h, the T1/2 [1] was 13.1 h and the IC50 [2] was 51 nM. For the same compound, the IC50 [3] was 162 nM, the IC50 (OCI-Ly3 cells) was 804 nM and the “Papp A − B” value (Caco-2 cells; Caco-2, 10 μM, 90 min, A to B) was 4.21 10^−6 cm · s^−1. The “Papp B − A” value (Caco-2 cells; Caco-2, 10 μM, 90 min, B to A) was 11.52 10^−6 cm · s^−1, the “Papp(B − A)/Papp(A − B)” value (Caco-2 cells; Caco-2 efflux ratio) was 2.74 and the “TGI (%) Day 28” value [4] was 93.04%. The “Weight Day 28” value [4] was 20.34 ± 0.78, the “ΔT/ΔC(%) Day 28” value [4] was 19.83% and the “Tumor volume (Mean ± SD) Day 28” value ([4]; vehicle group 1274 ± 82) was 230 ± 50 (1274 ± 82) mm^3.
